Data from patent publication US10464911B2, “1,3,4-oxadiazole sulfamide derivative compounds as histone deacetylase 6 inhibitor, and the pharmaceutical composition comprising the same” (Chong Kun Dang Pharmaceutical Corp., priority 2015, dated 2019).
Counter-ions that a name gives are not always drawn.

Molecular target: human recombinant HDAC6 (Homo sapiens (Human), UniProt Q9UBN7)
Test: HDAC6 enzyme activity inhibition assay (HDAC Fluorimetric Drug Discovery Kit)
Format: biochemical
Details: for HDAC6 selectivity (fold): HDAC6 versus HDAC1; for IC50: human recombinant HDAC6, same protocol as HDAC1 test
Description: In order to examine the HDAC6 selectivity of the compounds of formula I of the present invention by HDAC1 and HDAC6 enzymatic activity inhibition assays, an experiment was performed using a conventional substance as a control.
HDAC enzyme activity was measured using a HDAC Fluorimetric Drug Discovery Kit (BML-AK511, 516, Enzo Life Science). For the HDAC1 enzyme activity test, human recombinant HDAC1 (BML-SE456) was used as an enzyme source, and Fluor de Lys®-“SIRT1 (BNL-KI177) was used as a substrate. A 5-fold dilution of the compound was seeded into a 96-well plate, and then 0.3 μg of the enzyme and 10 μM of the substrate were added to each well of the plate and allowed to react at 30 for 60 minutes. Then, Fluor de Lys®-Developer II (BML-KI176) was added thereto and allowed to react for 30 minutes, after which the fluorescence value (Ex 360, Em 460) was measured using a multi-plate reader (Flexstation 3, Molecular Device). The HDAC6 enzyme was tested using human recombinant HDAC6 (382180) (Calbiochem) according to the same protocol as the HDAC1 enzyme activity test method. Based on the resulting values, each IC50 value was calculated using GraphPad Prism4.0 program.

human recombinant HDAC6, sequence (Q9UBN7 whole entry): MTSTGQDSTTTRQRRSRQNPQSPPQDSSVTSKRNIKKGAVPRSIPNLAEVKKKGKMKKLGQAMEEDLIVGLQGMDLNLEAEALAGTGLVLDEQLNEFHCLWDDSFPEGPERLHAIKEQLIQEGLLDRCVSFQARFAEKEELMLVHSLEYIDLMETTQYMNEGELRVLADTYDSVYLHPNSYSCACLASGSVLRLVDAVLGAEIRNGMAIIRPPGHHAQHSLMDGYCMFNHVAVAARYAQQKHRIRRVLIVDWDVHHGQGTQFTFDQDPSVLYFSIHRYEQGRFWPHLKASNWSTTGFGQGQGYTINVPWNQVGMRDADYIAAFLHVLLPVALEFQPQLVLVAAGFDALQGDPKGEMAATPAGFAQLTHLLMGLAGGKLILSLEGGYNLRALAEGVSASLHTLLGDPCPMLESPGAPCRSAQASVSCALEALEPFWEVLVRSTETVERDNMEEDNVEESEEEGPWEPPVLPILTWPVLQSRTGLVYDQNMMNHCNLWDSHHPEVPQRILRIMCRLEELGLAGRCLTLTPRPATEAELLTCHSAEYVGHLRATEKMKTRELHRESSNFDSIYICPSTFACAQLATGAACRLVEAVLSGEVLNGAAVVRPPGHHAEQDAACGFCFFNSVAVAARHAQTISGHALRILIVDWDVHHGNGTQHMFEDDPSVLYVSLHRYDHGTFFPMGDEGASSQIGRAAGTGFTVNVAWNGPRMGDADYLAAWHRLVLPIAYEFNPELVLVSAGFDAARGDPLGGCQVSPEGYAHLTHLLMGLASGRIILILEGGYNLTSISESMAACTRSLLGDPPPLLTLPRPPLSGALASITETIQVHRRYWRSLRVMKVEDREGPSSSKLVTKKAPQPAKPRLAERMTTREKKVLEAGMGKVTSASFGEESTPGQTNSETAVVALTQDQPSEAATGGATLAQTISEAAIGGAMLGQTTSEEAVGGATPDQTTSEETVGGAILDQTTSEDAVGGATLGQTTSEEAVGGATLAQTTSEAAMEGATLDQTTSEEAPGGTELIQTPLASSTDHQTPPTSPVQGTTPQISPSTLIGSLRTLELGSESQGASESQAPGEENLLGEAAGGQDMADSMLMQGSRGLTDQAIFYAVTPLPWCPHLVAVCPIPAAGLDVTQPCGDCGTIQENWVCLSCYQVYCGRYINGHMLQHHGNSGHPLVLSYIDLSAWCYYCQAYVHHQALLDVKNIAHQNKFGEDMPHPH

Compound | HDAC6 selectivity (fold) | IC50
CCN1[C@H](C)CN(S(=O)(=O)N(Cc2ccc(-c3nnc(C(F)F)o3)cc2)c2ccccc2)C[C@@H]1C [Compound 11640, (3S,5R)—N-(4-(5-(difluoromethyl)-1,3,4-oxadiazol-2-yl)benzyl)-4-ethyl-3,5-dimethyl-N-phenylpiperazine-1-sulfonamide] | 946 fold | 105 nM
CS(=O)(=O)N1CCN(S(=O)(=O)N(Cc2ccc(-c3nnc(C(F)(F)F)o3)cc2F)c2cccc(F)c2)CC1 [Compound 11310, N-(2-fluoro-4-(5-(trifluoromethyl)-1,3,4-oxadiazol-2-yl)benzyl)-N-(3-fluorophenyl)-4-(methylsulfonyl)piperazine-1-sulfonamide] | 1311 fold | 76 nM
Cc1cccc(N(Cc2ccc(-c3nnc(C(F)F)o3)cn2)S(=O)(=O)N2CCN(C)[C@@H](C)C2)c1 [Compound 11827, (S)—N-((5-(5-(difluoromethyl)-1,3,4-oxadiazol-2-yl)pyridin-2-yl)methyl)-3,4-dimethyl-N-(m-tolyl)piperazine-1-sulfonamide] | 1923 fold | 52 nM
CC(C)N1CCN(S(=O)(=O)N(Cc2ccc(-c3nnc(C(F)(F)F)o3)cc2F)c2ccccc2)CC1 [Compound 11300, N-(2-fluoro-4-(5-(trifluoromethyl)-1,3,4-oxadiazol-2-yl)benzyl)-4-isopropyl-N-phenylpiperazine-1-sulfonamide] | 861 fold | 116 nM
CN1CCN(S(=O)(=O)N(Cc2ccc(-c3nnc(C(F)F)o3)cn2)c2ccccc2)CC1 [Compound 11363, N-((5-(5-(difluoromethyl)-1,3,4-oxadiazol-2-yl)pyridin-2-yl)methyl)-4-methyl-N-phenylpiperazine-1-sulfonamide] | 6863 fold | 15 nM
CCCN1[C@H](C)CN(S(=O)(=O)N(Cc2ccc(-c3nnc(C(F)F)o3)cc2)c2ccccc2)C[C@@H]1C [Compound 11642, (3S,5R)—N-(4-(5-(difluoromethyl)-1,3,4-oxadiazol-2-yl)benzyl)-3,5-dimethyl-N-phenyl-4-propylpiperazine-1-sulfonamide] | 287 fold | 348 nM
Cl.O=S(=O)(N1CCNCC1)N(Cc1ccc(-c2nnc(C(F)F)o2)cc1F)c1ccccc1 [Compound 11301, N-(4-(5-(difluoromethyl)-1,3,4-oxadiazol-2-yl)-2-fluorobenzyl)-N-phenylpiperazine-1-sulfonamide Hydrochloride] | 3622 fold | 28 nM
CN1CCN(S(=O)(=O)N(Cc2ccc(-c3nnc(C(F)F)o3)cc2F)c2cccc(F)c2)CC1 [Compound 11316, N-(4-(5-(difluoromethyl)-1,3,4-oxadiazol-2-yl)-2-fluorobenzyl)-N-(3-fluorophenyl)-4-methylpiperazine-1-sulfonamide] | 4031 fold | 25 nM
C[C@@H]1CN(S(=O)(=O)N(Cc2ccc(-c3nnc(C(F)F)o3)cn2)c2cccc(Cl)c2)CCN1C [Compound 11825, (R)—N-(3-chlorophenyl)-N-((5-(5-(difluoromethyl)-1,3,4-oxadiazol-2-yl)pyridin-2-yl)methyl)-3,4-dimethylpiperazine-1-sulfonamide] | 2777 fold | 36 nM
O=S(=O)(N1CCC2(CC1)CN(C1CCC1)C2)N(Cc1ccc(-c2nnc(C(F)F)o2)cc1)c1ccccc1 [Compound 11789, 2-cyclobutyl-N-(4-(5-(difluoromethyl)-1,3,4-oxadiazol-2-yl)benzyl)-N-phenyl-2,7-diazaspiro[3.5]nonane-7-sulfonamide] | 819 fold | 122 nM
CC(=O)N1CCN(S(=O)(=O)N(Cc2ccc(-c3nnc(C(F)F)o3)cc2F)c2ccccc2)CC1 [Compound 11302, 4-acetyl-N-(4-(5-(difluoromethyl)-1,3,4-oxadiazol-2-yl)-2-fluorobenzyl)-N-phenylpiperazine-1-sulfonamide] | 3174 fold | 32 nM
CC(=O)N1[C@H](C)CN(S(=O)(=O)N(Cc2ccc(-c3nnc(C(F)F)o3)cc2)c2ccccc2)C[C@@H]1C [Compound 11641, (3S,5R)-4-acetyl-N-(4-(5-(difluoromethyl)-1,3,4-oxadiazol-2-yl)benzyl)-3,5-dimethyl-N-phenylpiperazine-1-sulfonamide] | 2989 fold | 33 nM
CC(=O)N1CCN(S(=O)(=O)N(Cc2ccc(-c3nnc(C(F)F)o3)cc2F)c2cccc(F)c2)CC1 [Compound 11315, 4-acetyl-N-(4-(5-(difluoromethyl)-1,3,4-oxadiazol-2-yl)-2-fluorobenzyl)-N-(3-fluorophenyl)piperazine-1-sulfonamide] | 3367 fold | 30 nM
CC(C)C(=O)N1CCN(S(=O)(=O)N(Cc2ccc(-c3nnc(C(F)(F)F)o3)cc2F)c2ccccc2)CC1 [Compound 11296, N-(2-fluoro-4-(5-(trifluoromethyl)-1,3,4-oxadiazol-2-yl)benzyl)-4-isobutyryl-N-phenylpiperazine-1-sulfonamide] | 636 fold | 157 nM
O=S(=O)(N1CCN(C2CCC2)CC1)N(Cc1ccc(-c2nnc(C(F)F)o2)cc1)c1ccccc1 [Compound 11674, 4-cyclobutyl-N-(4-(5-(difluoromethyl)-1,3,4-oxadiazol-2-yl)benzyl)-N-phenylpiperazine-1-sulfonamide] | 751 fold | 133 nM
C[C@H]1CN(S(=O)(=O)N(Cc2ccc(-c3nnc(C(F)F)o3)cn2)c2cccc(Cl)c2)CCN1C [Compound 11829, (S)—N-(3-chlorophenyl)-N-((5-(5-(difluoromethyl)-1,3,4-oxadiazol-2-yl)pyridin-2-yl)methyl)-3,4-dimethylpiperazine-1-sulfonamide] | 3448 fold | 29 nM
O=S(=O)(N1CCNCC1)N(Cc1ccc(-c2nnc(C(F)(F)F)o2)cc1F)c1cccnc1 [Compound 11321, N-(2-fluoro-4-(5-(trifluoromethyl)-1,3,4-oxadiazol-2-yl)benzyl)-N-(pyridin-3-yl)piperazine-1-sulfonamide Dihydrochloride] | 2249 fold | 44 nM
Cl.O=S(=O)(N1CCC2(CC1)CNC2)N(Cc1ccc(-c2nnc(C(F)F)o2)cc1)c1ccccc1 [Compound 11787, N-(4-(5-(difluoromethyl)-1,3,4-oxadiazol-2-yl)benzyl)-N-phenyl-2,7-diazaspiro[3.5]nonane-7-sulfonamide Hydrochloride] | 1041 fold | 96 nM
O=S(=O)(N1CCN(C2COC2)CC1)N(Cc1ccc(-c2nnc(C(F)F)o2)cn1)c1cccc(Cl)c1 [Compound 11832, N-(3-chlorophenyl)-N-((5-(5-(difluoromethyl)-1,3,4-oxadiazol-2-yl)pyridin-2-yl)methyl)-4-(oxetan-3-yl)piperazine-1-sulfonamide] | 4761 fold | 21 nM
